Data published in patent publication US20250161419A1, “SERPIN PEPTIDES AND METHODS OF USING THE SAME” (SERPIN PHARMA, LLC, priority 2022, published 2025).

Legend:
NFκB = NFκB reporter assay stimulated with LPS (THP1-XBlue-MD2-GD14 reporter cells, SEAP read-out); assay type: cell-based; settings: peptide 50 μg/ml before LPS 5 ng/ml, overnight
Experimental: The reporter cells (THP1-XBlue-MD2-GD14 cells) were treated with each peptide (50 μg/ml) before being insulted with LIPS (5 ng/ml) and incubated overnight. The NFκB inducible Secreted Embryonic Alkaline Phosphatase (SEAP) was measured in the supernatant and read for absorbance.

TLR4 = assay: Immunoblot of injured sciatic nerve two days after PNL, TLR4; assay type: in vivo, mouse; settings: 2 μg/g s.c.
Experimental: Neuropathic pain model: Mice (n=30) were randomly assigned to two different groups: SP163M (2 μg/g; s.c. 100 μl) and vehicle (H20 s.c. 100 μl). Mice were treated 1 h prior to partial nerve ligation (PNL) and then daily at least 1 h prior to behavior testing for 2 weeks. PNL studies were performed as previously disclosed^59 and adapted for mice.^57 Male mice were anesthetized with 3% isoflurane (Vetone, USA) in 1.5 L/min oxygen (Praxair, USA) and maintained with 2.5% isoflurane. An incision was made along the long axis of the femur. […] Filaments were presented in a consecutive fashion either ascending or descending using the up-down method as previously disclosed^60 and modified for mice.^57,61 The filament that caused paw withdrawal 50% of the time (the 50% PWT) was determined. […]
Immunoblots of sciatic nerve: Sciatic nerves were harvested 2 days after PNL to identify early molecular and cellular changes. […] Nerves were lysed in RIPA buffer and equal amounts of protein (20 μg) from nerves lysates, as determined by BCA Protein Assay (Bio-Rad, Hercules, CA, USA), were subjected to 10% SDS-PAGE and electro-transferred to nitrocellulose membranes. […] Primary antibodies were detected with HRP-conjugated species-specific secondary antibodies (Cell Signaling Technology, Danvers, MA, USA; cat #7076S or 4S; 1:5000). […]

IL-2 = assay: OVA-challenge allergic inflammation model, IL-2 in BALF by ELISA; assay type: in vivo, mouse; settings: OVA-challenge in sensitized mice, treated during challenge phase, vs vehicle
Experimental: (§1) Mice were subjected to the OVA-challenge allergic inflammation model and treated with vehicle or SP16 during the challenge phase. The bronchoalveolar lavage fluid (BALF) was analyzed for cytokines via ELISA.
(§2) The ova-induced model of allergic inflammation is a widely used model of eosinophilic driven allergic diseases.

IL-1a = assay: OVA-challenge allergic inflammation model, IL-1a in BALF by ELISA; assay type: in vivo, mouse; settings: OVA-challenge in sensitized mice, treated during challenge phase, vs vehicle
Experimental: as §1, §2

TSLP = assay: MC903 AD model, TSLP in ears and serum by ELISA; assay type: in vivo, mouse; settings: topical, vs MC903 treated mice
Experimental: (§3) Mice were treated with SP16 in 70% EtOH (MC903+SP16) or drug vehicle (MC903). Normal control (NC) mice were treated with EtOH only. Ears were measured for PAR2 protein expression through western blot analysis (quantitative analysis after normalization to beta-actin shown) (n=3-5). TSLP was measured in both the ears and serum by ELISA (N=3-5). Scratching was assessed over a 3 minute period after a 5-minute acclimatization period and the number of scratches are shown (n=3). IL-4 was measured in ear lysate via ELISA (N=3-5).

IL-4 = assay: MC903 AD model, IL-4 in ear lysate by ELISA; assay type: in vivo, mouse; settings: topical, vs MC903
Experimental: as §3

PAR2 = assay: MC903 AD model, PAR2 protein expression in ears by western blot; assay type: in vivo, mouse; settings: topical, vs MC903
Experimental: as §3

CCL24 = assay: OVA-challenge allergic inflammation model, CCL24 in BALF by ELISA; assay type: in vivo, mouse; settings: OVA-challenge in sensitized mice, treated during challenge phase, vs vehicle
Experimental: as §1, §2

[1] = test system: eosinophil infiltration into the lungs of mice; assay: OVA-induced allergic inflammation model, eosinophils in BALF by flow cytometry; assay type: in vivo, mouse; settings: p=0.04
Experimental: FIG. 15A: mice were subjected to the OVA-challenge allergic inflammation model and treated with vehicle, SP16, or A1AT during the challenge phase. The BALF was collected and analyzed for the percent of eosinophils and compared to saline (non-challenged) mice, vehicle OVA induced mice, or SP16 treated OVA induced mice.
The impact of SP16 treatment on eosinophilic infiltration in mice was assessed using the OVA-induced allergic inflammation model. The number of eosinophils in the bronchoalveolar lavage fluid was quantified by flow cytometry.

VKFNKPFVFLMIEQNTK (SP16 peptide core sequence including the LRP1 binding site; listed as Homo sapiens)
NFκB activity (NFκB inducible SEAP in supernatant) (NFκB): capable of reducing NFκB activity | TLR4 expression in injured sciatic nerve (immunoblots) (TLR4): robustly down regulated TLR4 expression | IL-2 in BALF (IL-2): significantly reduces IL-2 | IL-1a in BALF (IL-1a): significantly reduces IL-1a | local (ear) TSLP (TSLP): significant reduction in systemic (serum) and local (ear) TSLP | systemic (serum) TSLP (TSLP): significant reduction in systemic (serum) and local (ear) TSLP | IL-4 release in the skin tissue (ear lysate) (IL-4): significantly reduced | PAR2 protein expression in ears (PAR2): PAR2 and TSLP inhibition | CCL24 in BALF (CCL24): significantly reduces CCL24 | eosinophil infiltration into the lungs (eosinophils in BALF) [1]: reduces eosinophil infiltration into the lungs
